Laboratory results from the supplement of paper PMC11061612.

Columns and labels:
Assay in all cases: combination Emax (second highest fraction inhibited in the dose matrix, 72 h); higher = more inhibition; extreme values may be limits of the assay
[1] = test system: KALS-1 (Glioblastoma)
Summary of the method: (§1)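 Cell lines grown in DMEM/F12 or RPMI with 10% FBS were plated in 1536-well plates and held 24 hours at 37°C, 5% CO2 before 72 hours of exposure to two-drug dose matrices, with DMSO typically at 0.2%. CellTiter-Glo 2.0 luminescence gave viability, which was converted to inhibition. Vehicle wells were set to 0 and blank wells to 1. Combination Emax is the second-highest inhibition in the matrix, and Bliss excess is the observed combination effect minus the expected EA + EB − EA·EB, where EA and EB are the single-agent effects.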

[2] = test system: NMC-G1 (Low Grade Glioma)
Summary of the method: as §1

[3] = test system: HT-1080 (Other Solid Carcinomas)
Summary of the method: as §1

[4] = test system: NCI-H3118 (Head and Neck Carcinoma)
Summary of the method: as §1

[5] = test system: GAK (Melanoma)
Summary of the method: as §1

[6] = test system: SAT (Head and Neck Carcinoma)
Summary of the method: as §1

[7] = test system: COR-L88 (Small Cell Lung Carcinoma)
Summary of the method: as §1

[8] = test system: IST-MEL1 (Melanoma)
Summary of the method: as §1

[9] = test system: SK-CO-1 (Colorectal Carcinoma)
Summary of the method: as §1

[10] = test system: MS-1 (Small Cell Lung Carcinoma)
Summary of the method: as §1

[11] = test system: MOLP-8 (Plasma Cell Myeloma)
Summary of the method: as §1

[12] = test system: NCI-H226 (Mesothelioma)
Summary of the method: as §1

[13] = test system: NCI-H1341 (Small Cell Lung Carcinoma)
Summary of the method: as §1

[14] = test system: MOLT-13 (T-Lymphoblastic Leukemia)
Summary of the method: as §1

[15] = test system: KP-4 (Pancreatic Carcinoma)
Summary of the method: as §1

[16] = test system: SKG-IIIa (Cervical Carcinoma)
Summary of the method: as §1

[17] = test system: C-33-A (Cervical Carcinoma)
Summary of the method: as §1

[18] = test system: CL-11 (Colorectal Carcinoma)
Summary of the method: as §1

[19] = test system: PL4 (Pancreatic Carcinoma)
Summary of the method: as §1

[20] = test system: SiHa (Cervical Carcinoma)
Summary of the method: as §1

Row | Compound | combination Emax [1] | combination Emax [2] | combination Emax [3] | combination Emax [4] | combination Emax [5] | combination Emax [6] | combination Emax [7] | combination Emax [8] | combination Emax [9] | combination Emax [10] | combination Emax [11] | combination Emax [12] | combination Emax [13] | combination Emax [14] | combination Emax [15] | combination Emax [16] | combination Emax [17] | combination Emax [18] | combination Emax [19] | combination Emax [20]
1 | CN(CCO)CC[C@H](CSc1ccccc1)Nc1ccc(S(=O)(=O)NC(=O)c2ccc(N3CCC([C@@H](O)c4ccccc4-c4ccc(Cl)cc4)CC3)cc2)cc1S(=O)(=O)C(F)(F)F [AZD4320] + Cn1cnc2c(F)c(Nc3ccc(Br)cc3Cl)c(C(=O)NOCCO)cc21 [Selumetinib] (first compound max 1 µM, 7x7, partner max 3 µM) | 0.449 | 0.55 | 0.666 | 0.422 | 0.796 | 0.591 | 0.959 | 0.35 | 0.941 | 0.533 | 0.468 | 0.204 | 0.99 | 1 | 0.254 | 0.431 | 0.531 | 0.811 | 0.751 | 0.247
2 | Cc1c2c(nn1C)CSCc1cc(n(C)n1)CSc1cc(c3ccccc3c1)OCCCc1c(C(=O)O)n(C)c3c-2c(Cl)ccc13 [AZD5991] + C1CN(CCC1(C(=O)N[C@@H](CCO)C2=CC=C(C=C2)Cl)N)C3=NC=NC4=C3C=CN4 [Capivasertib] (first compound max 1 µM, 7x7, partner max 3 µM) | 0.469 | 0.214 | 0.139 | 0.245 | 0.179 | 0.738 | 0.259 | 0.212 | 0.213 | 0.524 | 1 | 0.2 | 0.647 | 1 | 0.143 | 0.18 | 0.689 | 0.133 | 0.339 | 0.23
3 | Cc1c2c(nn1C)CSCc1cc(n(C)n1)CSc1cc(c3ccccc3c1)OCCCc1c(C(=O)O)n(C)c3c-2c(Cl)ccc13 [AZD5991] + C=CCn1c(=O)c2cnc(Nc3ccc(N4CCN(C)CC4)cc3)nc2n1-c1cccc(C(C)(C)O)n1 [AZD1775] (first compound max 1 µM, partner max 1 µM) | 0.886 | 0.425 | 0.402 | 0.9 | 0.802 | 0.829 | 0.744 | 0.556 | 0.517 | 0.916 | 1 | 0.269 | 0.832 | 1 | 0.659 | 0.377 | 0.945 | 0.507 | 0.737 | 0.314
4 | Cc1c2c(nn1C)CSCc1cc(n(C)n1)CSc1cc(c3ccccc3c1)OCCCc1c(C(=O)O)n(C)c3c-2c(Cl)ccc13 [AZD5991] + CC1(C)CCC(CN2CCN(c3ccc(C(=O)NS(=O)(=O)c4ccc(NCC5CCOCC5)c([N+](=O)[O-])c4)c(Oc4cnc5[nH]ccc5c4)c3)CC2)=C(c2ccc(Cl)cc2)C1 [Venetoclax] (first compound max 1 µM, 7x7, partner max 1 µM) | 0.305 | 0.157 | 0.188 | 0.412 | 0.523 | 0.703 | 0.817 | 0.2 | 0.16 | 0.76 | 1 | 0.196 | 0.634 | 1 | 0.157 | 0.251 | 0.484 | 0.137 | 0.234 | 0.137
5 | Cc1c2c(nn1C)CSCc1cc(n(C)n1)CSc1cc(c3ccccc3c1)OCCCc1c(C(=O)O)n(C)c3c-2c(Cl)ccc13 [AZD5991] + C[C@@H]1COCCN1C2=NC(=NC(=C2)C3(CC3)[S@](=N)(=O)C)C4=C5C=CNC5=NC=C4 [AZD6738] (first compound max 1 µM, 7x7, partner max 10 µM) | 0.926 | 0.377 | 0.495 | 0.601 | 0.593 | 0.79 | 0.671 | 0.788 | 0.615 | 0.826 | 1 | 0.193 | 0.71 | 1 | 0.501 | 0.333 | 0.923 | 0.645 | 0.761 | 0.318
6 | Cc1c2c(nn1C)CSCc1cc(n(C)n1)CSc1cc(c3ccccc3c1)OCCCc1c(C(=O)O)n(C)c3c-2c(Cl)ccc13 [AZD5991] + C[C@@H](Nc1cc(F)cc(F)c1)c1cc(C(=O)N(C)C)cc2c(=O)cc(N3CCOCC3)oc12 [AZD8186] (first compound max 1 µM, 7x7, partner max 3 µM) | 0.436 | 0.224 | 0.157 | 0.33 | 0.349 | 0.747 | 0.221 | 0.303 | 0.283 | 0.48 | 1 | 0.245 | 0.706 | 1 | 0.206 | 0.24 | 0.224 | 0.155 | 0.421 | 0.356
